Consider 30 compounds from patent US9163021B2, “Pyrrolo[3,2-c]pyridine tropomyosin-related kinase inhibitors” (Pfizer Limited, priority 2012, dated 2015).

The structures appear in SMILES notation.

In this assay the target is TRKA (Homo sapiens (Human), UniProt P04629). In words: Isolated TRK enzyme assay (HTRF KinEASE-TK), PV3144 TrkA enzyme assay. Type of assay: biochemical. The following applies: arithmetic mean where more than one reading. In a few lines: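 His-tagged TrkA cytoplasmic domain preactivated with ATP 20 min, then with compound 20 min at room temperature before 1 µM final biotin-TK substrate; HTRF 665/620 nm read.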
Chain of TRKA (P04629 441-796): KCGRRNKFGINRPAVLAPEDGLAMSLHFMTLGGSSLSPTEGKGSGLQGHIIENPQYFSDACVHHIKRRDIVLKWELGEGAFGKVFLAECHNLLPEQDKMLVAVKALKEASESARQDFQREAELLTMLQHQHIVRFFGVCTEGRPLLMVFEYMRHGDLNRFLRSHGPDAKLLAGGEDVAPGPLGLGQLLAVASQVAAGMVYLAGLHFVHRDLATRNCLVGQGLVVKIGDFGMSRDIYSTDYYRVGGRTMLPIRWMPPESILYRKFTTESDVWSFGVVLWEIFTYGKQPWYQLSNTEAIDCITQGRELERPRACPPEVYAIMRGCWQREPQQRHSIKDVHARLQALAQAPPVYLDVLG
(In general: Time-resolved FRET reads energy transfer from a long-lived donor to a nearby acceptor.)

As to `CC(CO)n1cc(C(=O)c2cncc(NC(=O)Cc3ccc(C#N)cc3)c2)c2cncc(F)c21` (single isomer, unassigned) [Example 217, 2-(4-cyanophenyl)-N-(5-{[7-fluoro-1-(1-hydroxypropan-2-yl)-1H-pyrrolo[3,2-c]pyridin-3-yl]carbonyl}pyridin-3-yl)acetamide], 0.418 µM corresponded to half-maximal inhibition (IC50).

As for `Cc1ccn(CC(=O)Nc2cc(C(=O)c3cn(C(C)C)c4ccncc34)ccn2)n1` [Example 109, 2-(3-methyl-1H-pyrazol-1-yl)-N-(4-{[1-(propan-2-yl)-1H-pyrrolo[3,2-c]pyridin-3-yl]carbonyl}pyridin-2-yl)acetamide], inhibition was half-maximal at 0.0871 µM (IC50).

`CC(CO)n1cc(C(=O)c2cncc(NC(=O)Cc3ccc(Cl)cn3)c2)c2cncc(F)c21` (single isomer, unassigned) [Example 211, 2-(5-chloropyridin-2-yl)-N-(5-{[7-fluoro-1-(1-hydroxypropan-2-yl)-1H-pyrrolo[3,2-c]pyridin-3-yl]carbonyl}pyridin-3-yl)acetamide]: the IC50 (in general, the concentration that inhibits the measured activity by half) came out at 0.0933 µM.

Compound `CC(CO)n1cc(C(=O)c2cncc(NC(=O)Cc3ccc(C#N)cc3)c2)c2cnccc21` (stereo not drawn) [Example 67] had an IC50 of 0.101 µM.

Regarding `Cc1cc(C(C)C)nn1CC(=O)Nc1cc(C(=O)c2cn(C(C)C)c3ccncc23)ccn1` [Example 113, 2-[5-methyl-3-(propan-2-yl)-1H-pyrazol-1-yl]-N-(4-{[1-(propan-2-yl)-1H-pyrrolo[3,2-c]pyridin-3-yl]carbonyl}pyridin-2-yl)acetamide], the IC50 stood at 0.0204 µM.

As for `CC(CO)n1cc(C(=O)c2cncc(NC(=O)Cc3ccc(F)cn3)c2)c2cnccc21` (single isomer, unassigned) [Example 68, 2-(5-fluoropyridin-2-yl)-N-(5-{[1-(1-hydroxypropan-2-yl)-1H-pyrrolo[3,2-c]pyridin-3-yl]carbonyl}pyridin-3-yl)acetamide], inhibition was half-maximal at 0.201 µM (IC50). This IC50 lies about 9.9-fold higher than the previous one.

Consider `Cc1cnn(CC(=O)Nc2cncc(C(=O)c3cn(C(C)C)c4ccncc34)c2)c1` [Example 25, 2-(4-methyl-1H-pyrazol-1-yl)-N-(5-{[1-(propan-2-yl)-1H-pyrrolo[3,2-c]pyridin-3-yl]carbonyl}pyridin-3-yl)acetamide], for which the IC50 was 0.0214 µM.

The compound `O=C(Cc1nc(C2CC2)oc1C1CC1)Nc1cc(C(=O)c2cn(C3COC3)c3ccncc23)ccn1` [Example 202, 2-(2,5-dicyclopropyl-1,3-oxazol-4-yl)-N-(4-{[1-(oxetan-3-yl)-1H-pyrrolo[3,2-c]pyridin-3-yl]carbonyl}pyridin-2-yl)acetamide] showed an IC50 of 0.437 µM.

Consider `CC(C)n1cc(C(=O)c2ccnc(NC(=O)Cc3ccc(Cl)cn3)c2)c2cnccc21` [Example 82, 2-(5-chloropyridin-2-yl)-N-(4-{[1-(propan-2-yl)-1H-pyrrolo[3,2-c]pyridin-3-yl]carbonyl}pyridin-2-yl)acetamide], for which the IC50 stood at 0.00616 µM.

`CC(C)c1cn(CC(=O)Nc2cncc(C(=O)c3cn(C(C)(C)CO)c4ccncc34)c2)nn1` [Example 14, N-(5-{[1-(1-hydroxy-2-methylpropan-2-yl)-1H-pyrrolo[3,2-c]pyridin-3-yl]carbonyl}pyridin-3-yl)-2-[4-(propan-2-yl)-1H-1,2,3-triazol-1-yl]acetamide] displayed an IC50 of 0.00989 µM.

In the case of `CC(C)n1cc(C(=O)c2cncc(NC(=O)Cc3nccn3C)c2)c2cnccc21` [Example 46, 2-(1-methyl-1H-imidazol-2-yl)-N-(5-{[1-(propan-2-yl)-1H-pyrrolo[3,2-c]pyridin-3-yl]carbonyl}pyridin-3-yl)acetamide], 3.08 µM corresponded to half-maximal inhibition (IC50).

For `CC(C)n1cc(C(=O)c2cc(NC(=O)Cc3cn(C4CC4)nc3C(F)(F)F)ccn2)c2cnccc21` [Example 57], half-maximal inhibition (IC50) was put at 1.68 µM. Compared with the last compound, the IC50 is about 1.8-fold lower.

In the case of `Cc1cc(C(F)(F)F)nn1CC(=O)Nc1cc(C(=O)c2cn(C(C)C)c3ccncc23)ccn1` [Example 104, 2-[5-methyl-3-(trifluoromethyl)-1H-pyrazol-1-yl]-N-(4-{[1-(propan-2-yl)-1H-pyrrolo[3,2-c]pyridin-3-yl]carbonyl}pyridin-2-yl)acetamide], the IC50 came out at 0.0138 µM.

Take `CC(C)n1cc(C(=O)c2cncc(NC(=O)Cn3cc(C(F)(F)F)nn3)c2)c2cncc(F)c21` [Example 87, N-(5-{[7-fluoro-1-(propan-2-yl)-1H-pyrrolo[3,2-c]pyridin-3-yl]carbonyl}pyridin-3-yl)-2-[4-(trifluoromethyl)-1H-1,2,3-triazol-1-yl]acetamide]: 0.029 µM corresponded to half-maximal inhibition (IC50).

In the case of `Cc1cn(CC(=O)Nc2cncc(C(=O)c3cn(C(C)C)c4ccncc34)c2)nn1` [Example 132, 2-(4-methyl-1H-1,2,3-triazol-1-yl)-N-(5-{[1-(propan-2-yl)-1H-pyrrolo[3,2-c]pyridin-3-yl]carbonyl}pyridin-3-yl)acetamide], it took 0.505 µM to reach half-maximal inhibition (IC50).

The compound `CC(CO)n1cc(C(=O)c2cncc(NC(=O)Cc3ccc(C(F)(F)F)cc3)c2)c2cnccc21` (single isomer, unassigned) [Example 35, N-(5-{[1-(1-hydroxypropan-2-yl)-1H-pyrrolo[3,2-c]pyridin-3-yl]carbonyl}pyridin-3-yl)-2-[4-(trifluoromethyl)phenyl]acetamide] showed an IC50 of 0.0879 µM.

Turning to `Cc1cc(C(C)C)nn1CC(=O)Nc1cncc(C(=O)c2cn(C(C)C)c3ccncc23)c1` [Example 120, 2-(5-methyl-3-(propan-2-yl)-1H-pyrazol-1-yl]-N-(5-{[1-(propan-2-yl)-1H-pyrrolo[3,2-c]pyridin-3-yl]carbonyl}pyridin-3-yl)acetamide], the IC50 was determined as 0.0395 µM.

For the compound `CC(C)n1cc(C(=O)c2cncc(NC(=O)Cn3ccc(C(F)(F)F)n3)c2)c2cnccc21` [Example 21, N-(5-{[1-(propan-2-yl)-1H-pyrrolo[3,2-c]pyridin-3-yl]carbonyl}pyridin-3-yl)-2-[3-(trifluoromethyl)-1H-pyrazol-1-yl]acetamide], the IC50 turned out to be 0.0271 µM.

Compound `CC(C)n1cc(C(=O)c2ccnc(NC(=O)Cc3cncs3)c2)c2cnccc21` [Example 185, N-(4-{[1-(propan-2-yl)-1H-pyrrolo[3,2-c]pyridin-3-yl]carbonyl}pyridin-2-yl)-2(1,3-thiazol-5-yl)acetamide] showed an IC50 of 1.86 µM. Compared with the last compound, the IC50 is about 69-fold higher.

Turning to `CC(C)n1cc(C(=O)c2cncc(NC(=O)Cn3cc(C4CC4)cn3)c2)c2cncc(F)c21` [Example 91, 2-(4-cyclopropyl-1H-pyrazol-1-yl)-N-(5-{[7-fluoro-1-(propan-2-yl)-1H-pyrrolo[3,2-c]pyridin-3-yl]carbonyl}pyridin-3-yl)acetamide], 0.015 µM corresponded to half-maximal inhibition (IC50).

In turn, `Cc1cc(CC(=O)Nc2cc(C(=O)c3cn(C(C)C)c4ccncc34)ccn2)[nH]n1` [Example 177, 2(3-methyl-1H-pyrazol-5-yl)-N-(4-{[1-(propan-2-yl)-1H-pyrrolo[3,2-c]pyridin-3-yl]carbonyl}pyridin-2-yl)acetamide] registered an IC50 of 0.102 µM.

Regarding `CC(C)(CO)n1cc(C(=O)c2cncc(NC(=O)Cc3cccc(C(F)(F)F)c3)c2)c2cnccc21` [Example 235, N-(5-{[1-(1-hydroxy-2-methylpropan-2-yl)-1H-pyrrolo[3,2-c]pyridin-3-yl]carbonyl}pyridin-3-yl)-2-[3-(trifluoromethyl)phenyl]acetamide], the IC50 was 0.00287 µM.

Consider `CC(CO)n1cc(C(=O)c2cncc(NC(=O)Cn3cc(C(F)(F)F)cn3)c2)c2cncc(F)c21` (single isomer, unassigned) [Example 227, N-(5-{[7-fluoro-1-(1-hydroxypropan-2-yl)-1H-pyrrolo[3,2-c]pyridin-3-yl]carbonyl}pyridin-3-yl)-2-[4-(trifluoromethyl)-1H-pyrazol-1-yl]acetamide], for which it took 0.0243 µM to reach half-maximal inhibition (IC50).

`Cc1cc(C)n(CC(=O)Nc2cc(C(=O)c3cn(C(C)C)c4ccncc34)ccn2)n1` [Example 164, 2-(3,5-dimethyl-1H-pyrazol-1-yl)-N-(4-{[1-(propan-2-yl)-1H-pyrrolo[3,2-c]pyridin-3-yl]carbonyl}pyridin-2-yl)acetamide] gave an IC50 of 0.033 µM.

Take `CC(CO)n1cc(C(=O)c2cncc(NC(=O)Cc3ccc(C(F)(F)F)cc3)c2)c2cncc(F)c21` (single isomer, unassigned) [Example 222, N-(5-{[7-fluoro-1-(1-hydroxypropan-2-yl)-1H-pyrrolo[3,2-c]pyridin-3-yl]carbonyl}pyridin-3-yl)-2-[4-(trifluoromethyl)phenyl]acetamide]: 0.0164 µM corresponded to half-maximal inhibition (IC50).

For `CC(CO)n1cc(C(=O)c2cncc(NC(=O)Cc3ccc(Cl)cn3)c2)c2cnccc21` (single isomer, unassigned) [Example 73, 2-(5-chloropyridin-2-yl)-N-(5-{[1-(1-hydroxypropan-2-yl)-1H-pyrrolo[3,2-c]pyridin-3-yl]carbonyl}pyridin-3-yl)acetamide], the IC50 was 0.0883 µM.

In the case of `Cc1nc(CC(=O)Nc2cc(C(=O)c3cn(C(C)C)c4ccncc34)ccn2)c(C2CC2)o1` [Example 174, 2(5-cyclopropyl-2-methyl-1,3-oxazol-4-yl)-N-(4-{[1-(propan-2-yl)-1H-pyrrolo[3,2-c]pyridin-3-yl]carbonyl}pyridin-2-yl)acetamide], it took 0.0514 µM to reach half-maximal inhibition (IC50).

Compound `CC(C)(CO)n1cc(C(=O)c2cncc(NC(=O)Cn3ccc(C(F)(F)F)n3)c2)c2cnccc21` [Example 236, N-(5-{[1-(1-hydroxy-2-methylpropan-2-yl)-1H-pyrrolo[3,2-c]pyridin-3-yl]carbonyl}pyridin-3-yl)-2-[3-(trifluoromethyl)-1H-pyrazol-1-yl]acetamide] came in with an IC50 of 0.0431 µM.

The compound `Cc1ccn(CC(=O)Nc2cc(C(=O)c3cn(CCO)c4ccncc34)ccn2)n1` [Example 150, N-(4-{[1-(2-hydroxyethyl)-1H-pyrrolo[3,2-c]pyridin-3-yl]carbonyl}pyridin-2-yl)-2-(3-methyl-1H-pyrazol-1-yl)acetamide] showed an IC50 of 3.08 µM.

For the compound `CC(C)n1cc(C(=O)c2cc(NC(=O)Cn3ccc(C4CC4)n3)ccn2)c2cnccc21` [Example 29, 2-(3-cyclopropyl-1H-pyrazol-1-yl)-N-(2-{[1-(propan-2-yl)-1H-pyrrolo[3,2-c]pyridin-3-yl]carbonyl}pyridin-4-yl)acetamide], the IC50 was determined as 0.106 µM.
